The text below walks through data of patent US7081449B2, “Pyrido[2,3-d]pyrimidine and pyrimido[4,5-d]pyrimidine nucleosides” (Valeant Research & Development, priority 2000, dated 2006).

What all share (assay type): cell-based
In assay [1] the test system is Breast: MCF 7, NCI/ADR-RES, MDA-MB-435, BT-549, T-47D. The assay is described as follows: Determination of EC50 in cancer cells, breast. The note with it: Breast tumor cell lines; incubated at least 24 hours. The method, then: (§1) Cancer cells were incubated with 4-amino-5-oxo-8-(β-D-ribofuranosyl)pyrido[2,3-d]pyrimidine at various concentrations for a period of at least 24 hours and EC50 was determined. Table 1 gives in vitro activity of 4-amino-5-oxo-8-(β-D-ribofuranosyl)pyrido[2,3-d]pyrimidine in nM concentrations.

The next assay concerns Prostate: PC-3, DU-145. Briefly: Determination of EC50 in cancer cells, prostate. The following applies: Homo sapiens, Prostate tumor cell lines, incubated at least 24 hours. The procedure:
as §1

In assay [2] the test system is Kidney: 786-0, A498, ACHN, CAKI-1, RXF 393, UO-31. Briefly: Determination of EC50 in cancer cells, kidney. The note with it: Kidney tumor cell lines; incubated at least 24 hours. The procedure: as §1
Assay [3] relates to Ovarian: IGROV1, OVCAR-3, OVCAR-4, OVCAR-5, SK-OV-3. The assay is described as follows: Determination of EC50 in cancer cells, ovarian. The note with it: Ovarian tumor cell lines; incubated at least 24 hours. The method, then:
as §1

Assay [4] concerns Melanoma: LOX IM VI, MALME-3M, M14, SK-MEL-2, SK-MEL-28, ACC-257, UACC-62. Briefly: Determination of EC50 in cancer cells, melanoma. The note with it: Melanoma cell lines; incubated at least 24 hours. The method, then:
as §1

Assay [5] concerns CNS: SF-268, SF-295, SF-539, SNB-19, SNB-75, U251. The assay is described as follows: Determination of EC50 in cancer cells, CNS. The following applies: CNS tumor cell lines; incubated at least 24 hours. The method, then:
as §1

Assay [6] deals with Colon: SW-620, KM 12, HT29, HCT-15, CHCT-116, HCC-2998, COLO-205. Briefly: Determination of EC50 in cancer cells, colon. The following applies: Colon tumor cell lines; incubated at least 24 hours. The procedure:
as §1

For assay [7], the system named is Lung: NCI-H522, NCI-H460, NCI-H322M, NCI-H23, HOP-92, HOP-62, EKVX, A549. Briefly: Determination of EC50 in cancer cells, lung. The following applies: Lung tumor cell lines; incubated at least 24 hours. The method, then:
as §1

The test system of assay [8] is Leukemia: SR, RPMI 8226, MOLT-4, K-562, HL-60, CCRF-CEM. Briefly: Determination of EC50 in cancer cells, leukemia. The note with it: Leukemia cell lines; incubated at least 24 hours. The method, then:
as §1

Assay [9] deals with Liver: PLC/PRF5, Hep3B, Huh7. The assay is described as follows: Determination of EC50 in cancer cells, liver. The note with it: Liver tumor cell lines; incubated at least 24 hours. The procedure: as §1
A further assay has as its system Pancreas: PaCa-2, PANC-1. The assay is described as follows: Determination of EC50 in cancer cells, pancreas. The note with it: Pancreas tumor cell lines; incubated at least 24 hours. The method, then:
as §1

Assay [10] concerns melanoma B16 and 140 cells, Leukemia cells (K562, M), and colon HT-29 cells. Briefly: Anti-clonogenic activity in various cancer cells. The following applies: FIG. 3; compared against Ecyd and Gemzar. The procedure:
To determine the anti-clonogenic activity of contemplated compounds in various cancer cells experiments were conducted. […] Here again, 4-amino-5-oxo-8-(β-D-ribofuranosyl)pyrido[2,3-d]pyrimidine was used as a representative compound of contemplated compounds and compared against Ecyd and Gemzar.

Another assay has as its system NB4 cells (Leukemia). The assay is described as follows: Induction of apoptosis, histone-DNA ELISA. The following applies: FIGS. 4A and 4B. The method, then:
(§2) In order to determine how contemplated compounds interact with cancer cells, NB4 cells (Leukemia) and Prostate 81 (prostate cancer cells) cells were incubated with 4-amino-5-oxo-8-(β-D-ribofuranosyl)pyrido[2,3-d]pyrimidine, Ecyd, and Gemzar, and apoptosis was monitored by histone-DNA ELISA.
Background: An ELISA detects its analyte on a solid surface through an enzyme-linked reagent.

Assay [11] has as its system Prostate 81 (prostate cancer cells). Briefly: Induction of apoptosis, histone-DNA ELISA. The note with it: Prostate 81 cells, FIGS. 4A and 4B. The method, then: as §2
Another assay relates to K562 cells. Briefly: Inhibition of RNA synthesis, H^3-Uridine incorporation. The note with it: various time periods and concentrations, FIG. 5. The text has this: RNA synthesis was monitored in K562 cells using H^3-Uridine incorporation following a general protocol as outlined below.
In another assay the test system is RNA Polymerase I. Briefly: RNA Polymerase I dependent RNA synthesis (28S and 18S rRNA processing). The following applies: FIG. 6. The method, then: (§3) To further investigate the influence of contemplated compounds (here again represented by 4-amino-5-oxo-8-(β-D-ribofuranosyl)pyrido[2,3-d]pyrimidine) on RNA synthesis dependent on RNA Polymerase I, II, and III, experiments were conducted.

A further assay has as its system RNA Polymerase III. The assay is described as follows: RNA Polymerase III dependent RNA synthesis. The note with it: FIG. 6. The method, then:
as §3

Another assay relates to RNA Polymerase II. The assay is described as follows: RNA Polymerase II dependent RNA synthesis. The following applies: FIG. 7. The procedure:
as §3

For another assay, the system named is ERK. The assay is described as follows: MEK-ERK phosphorylation, autoradiograph, NB4 leukemic cells. The note with it: FIG. 8. The method, then:
(§4) To investigate the possibility of activation of the MEK-ERK signal transduction pathway by contemplated compounds an experiment was conducted. […] Consequently, it is contemplated that the compounds according to the inventive subject matter may induce apoptosis through activation of MEK (which can be abolished by inhibitors of the MEK-ERK pathway).

In a further assay the test system is MEK. The description is as above. The following applies: FIG. 8. The procedure:
as §4

For a further assay, the system named is Raf. Described as above. The following applies: FIG. 8. The procedure: as §4

`Nc1ncnc2c1c(=O)ccn2[C@@H]1O[C@H](CO)[C@@H](O)[C@H]1O` [4-amino-5-oxo-8-(β-D-ribofuranosyl)pyrido[2,3-d]pyrimidine]: the EC50 – broadly, the concentration at which the effect is half-maximal – in [1] worked out at 18 nM; in the assay on Prostate: PC-3, DU-145 it was 19 nM; in [2], 44 nM; in assay [3], 21 nM; in assay [4], 30 nM; in [5] it was 125 nM. In addition, the half-maximal effective concentration (EC50) in assay [6] was determined as 16 nM; in assay [7], 68 nM; in assay [8] it was 34 nM; in assay [9] it was 288 nM; in the assay with Pancreas: PaCa-2, PANC-1, 188 nM. The anti-clonogenic activity entry in [10] is recorded as “significant anti-clonogenic activity”. Also, the induction of apoptosis entry (in the assay with NB4 cells (Leukemia); in [11]) was “induce apoptosis in a dose dependent manner” in each case. Moreover, the “inhibition of RNA synthesis” value in the assay with K562 cells is recorded as “inhibition of RNA synthesis”. Also, in the assay with RNA Polymerase I, the “inhibition of processing of 28S and 18S rRNA” value is “may inhibit processing of 28S and 18S rRNA”. In addition, the “inhibition of RNA Polymerase III” value in the assay on RNA Polymerase III is given as “fail to significantly inhibit RNA Polymerase III”. Also, the “inhibition of RNA-Polymerase II dependent RNA synthesis” value in the assay on RNA Polymerase II is “inhibit RNA-Polymerase II dependent RNA synthesis in a concentration dependent manner”. Besides, in the assay on ERK, the “phosphorylation of ERK” value was “phosphorylation of MEK and ERK”. Moreover, the “phosphorylation of MEK” value in the assay with MEK is reported as “enhance phosphorylation of MEK”. Moreover, the “phosphorylation of Raf” value in the assay on Raf is listed as “do not enhance phosphorylation of Raf”.
